According to article PMC9363231, “High‐resolution analysis of individual spike peptide‐specific CD4 ^+ T‐cell responses in vaccine recipients and COVID‐19 patients” (Clinical & Translational Immunology, 2022):
Like-named read-outs stand apart in the source and are kept apart here.

Key:
[1] = target: HLA-DRB1*15:01 (Homo sapiens, UniProt P01903+P01911); assay: biochemical; assay type: binding
[2] = system: CD4+ T cells; assay type: cell-based, human
[3] = target: T1, HLA-DPB1*04:01 (Homo sapiens, UniProt P04440+P20036); assay: In vitro HLA binding (data not shown)
T1 sequence (P04440 30-258): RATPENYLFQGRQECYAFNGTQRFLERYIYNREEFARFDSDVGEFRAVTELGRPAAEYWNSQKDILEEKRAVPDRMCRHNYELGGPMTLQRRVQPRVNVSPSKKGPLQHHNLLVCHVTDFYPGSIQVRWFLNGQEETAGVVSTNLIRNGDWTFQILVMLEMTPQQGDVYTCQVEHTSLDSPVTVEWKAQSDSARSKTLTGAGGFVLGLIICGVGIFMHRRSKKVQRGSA
T1 sequence (P20036 29-260): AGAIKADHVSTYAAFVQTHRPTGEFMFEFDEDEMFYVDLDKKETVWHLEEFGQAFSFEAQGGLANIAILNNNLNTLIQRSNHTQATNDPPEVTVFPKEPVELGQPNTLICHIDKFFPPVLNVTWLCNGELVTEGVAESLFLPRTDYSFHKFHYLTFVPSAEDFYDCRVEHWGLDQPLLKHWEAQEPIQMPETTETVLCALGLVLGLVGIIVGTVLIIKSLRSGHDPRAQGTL

[4] = system: HLA-DPB1*04:02; assay: In vitro HLA binding (data not shown); design: species or system human
[5] = target: HLA-DRB1*01:01 (Homo sapiens, UniProt P01903+P01911, A100R/D57E/F55L/F60I/F76Y/I96L/L162R/M171V/P40L/Q125E/R42F/V115G/Y59C); assay: biochemical; assay type: binding
[6] = target: HLA-DRB1*03:01 (Homo sapiens, UniProt P01903+P01911, A100K/A102G/A103R/A169T/F55Y/I96L/K41T/L162R/M171V/P40S/Q125H/Q178H/Q39Y/R42S/S66N/T106N/T262R/W38E/Y61H); assay: biochemical; assay type: binding
[7] = target: HLA-DRB1*04:01 (Homo sapiens, UniProt P01903+P01911, A100K/A169T/F76Y/I96L/K127E/L162R/M171V/N62H/P40V/Q125Y/R42H/S133A/S149N/S66Y/V115G/V209L/W38E); assay: biochemical; assay type: binding
[8] = target: HLA-DRB1*04:05 (Homo sapiens, UniProt P01903+P01911, A100R/A169T/D86S/F76Y/I96L/K127E/L162R/M171V/N62H/P40V/Q125Y/R42H/S133A/S149N/S66Y/V115G/V209L/W38E); assay: biochemical; assay type: binding
[9] = target: HLA-DRB1*07:01 (Homo sapiens, UniProt P01903+P01911, A100R/A102G/A103Q/D57E/D86V/E43K/F76Y/K127E/L162R/M171V/P40G/Q125H/Q99D/R33Q/R42Y/R54Q/S133A/S66F/T210M/V115G/Y107V/Y59L/Y89S); assay: biochemical; assay type: binding
[10] = target: HLA-DRB1*08:02 (Homo sapiens, UniProt P01903+P01911, A100R/A103L/A169T/F76Y/H45Y/I96F/K41T/L162R/M171V/P40S/Q125H/Q178H/Q39Y/Q99D/R218S/R42G/S66Y/V115G/W38E); assay: biochemical; assay type: binding
[11] = target: HLA-DRB1*09:01 (Homo sapiens, UniProt P01903+P01911, A100R/A103E/D57H/D86V/F55Y/F60I/F76Y/I96F/K127E/L162R/M171V/P40D/Q125H/Q99R/R33Q/R42F/S133A/S66N/T210M/V115G/W38K/Y107V/Y59G/Y89S); assay: biochemical; assay type: binding
[12] = target: HLA-DRB1*11:01 (Homo sapiens, UniProt P01903+P01911, A100R/A169T/A87E/I96F/K41T/L162R/M171V/P40S/Q125H/Q178H/Q39Y/Q99D/R42S/S66Y/T262R/V115G/W38E); assay: biochemical; assay type: binding
[13] = target: HLA-DRB1*12:01 (Homo sapiens, UniProt P01903+P01911, A100R/A169T/D57E/D86V/F55L/H45Y/K41T/L162R/M171V/P40S/Q125H/Q178H/Q39Y/Q99D/R42G/S66L/T262R/V114A/V67L/W38E/Y59H/Y61H/Y89S); assay: biochemical; assay type: binding
[14] = target: HLA-DRB1*13:02 (Homo sapiens, UniProt P01903+P01911, A100E/A169T/K41T/L162R/M171V/P40S/Q125H/Q178H/Q39Y/Q99D/R42S/S66N/T262R/V115G/W38E/Y61H); assay: biochemical; assay type: binding
Chain of HLA-DRB1*13:02 (P01903 26-254 limits assumed, other chains not shown): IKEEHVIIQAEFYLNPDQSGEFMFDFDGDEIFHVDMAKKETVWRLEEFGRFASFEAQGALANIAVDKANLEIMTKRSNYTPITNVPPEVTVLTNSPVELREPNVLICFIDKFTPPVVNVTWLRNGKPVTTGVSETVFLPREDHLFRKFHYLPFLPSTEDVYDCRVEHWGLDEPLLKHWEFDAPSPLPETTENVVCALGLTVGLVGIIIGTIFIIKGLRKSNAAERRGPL

Chain of HLA-DRB1*03:01 (P01903 26-254, other chains not shown): as the sequence (P01903 26-254 limits assumed, other chains not shown) above
Chain of HLA-DRB1*11:01 (P01903 26-254 limits assumed, other chains not shown): as above

## CC(C)C[C@H](NC(=O)[C@H](Cc1ccccc1)NC(=O)[C@@H]1CCCN1C(=O)[C@H](CC(=O)O)NC(=O)[C@H](CC(N)=O)NC(=O)[C@H](CS)NC(=O)[C@H](Cc1ccccc1)NC(=O)[C@H](CCC(N)=O)NC(=O)[C@H](Cc1ccccc1)NC(=O)[C@H](CCC(=O)O)NC(=O)[C@@H](N)CS)C(=O)NCC(=O)N[C@H](C(=O)N[C@@H](Cc1ccc(O)cc1)C(=O)N[C@@H](Cc1ccc(O)cc1)C(=O)O)C(C)C [peptide 27]
[1]; read-out: in vitro binding capacity (IC50), DRB1*15:01
  IC50: 7.65 µM
[2]; responders / study participants carrying DRB1*01:01, CD4+ IFN-γ response, peptide 10 μg mL−1, after 14 days expansion
  responding patients, DRB1*01:01: 4/6
[2]; responders / study participants carrying DRB1*03:01, CD4+ IFN-γ response, peptide 10 μg mL−1, after 14 days expansion
  responding patients, DRB1*03:01: 2/3
[2]; responders / study participants carrying DRB1*04:01, CD4+ IFN-γ response, peptide 10 μg mL−1, after 14 days expansion
  responding patients, DRB1*04:01: 4/4
[2]; responders / study participants carrying DRB1*07:01, CD4+ IFN-γ response, peptide 10 μg mL−1, after 14 days expansion
  responding patients, DRB1*07:01: 5/8
[2]; responders / study participants carrying DRB1*11:01, CD4+ IFN-γ response, peptide 10 μg mL−1, after 14 days expansion
  responding patients, DRB1*11:01: 3/3
[2]; responders / study participants carrying DRB1*12:01, CD4+ IFN-γ response, peptide 10 μg mL−1, after 14 days expansion
  responding patients, DRB1*12:01: 0/1
[2]; responders / study participants carrying DRB1*15:01, CD4+ IFN-γ response, peptide 10 μg mL−1, after 14 days expansion
  responding patients, DRB1*15:01: 3/7
[2]; share of the 35 participants with a CD4+ IFN-γ response to the peptide
  response frequency (RF) / recognition rate of CD4+ T-cell response: 64%
[3]
  binding to HLA-DPB1*04:01: high affinity
[4]
  binding to HLA-DPB1*04:02: high affinity

## CC[C@H](C)[C@H](NC(=O)[C@H](Cc1ccccc1)NC(=O)[C@@H](N)CO)C(=O)N[C@@H](CCC(=O)O)C(=O)N[C@@H](CC(=O)O)C(=O)N[C@@H](CC(C)C)C(=O)N[C@@H](CC(C)C)C(=O)N[C@@H](Cc1ccccc1)C(=O)N[C@@H](CC(N)=O)C(=O)N[C@@H](CCCCN)C(=O)N[C@H](C(=O)N[C@H](C(=O)N[C@@H](CC(C)C)C(=O)N[C@@H](C)C(=O)N[C@@H](CC(=O)O)C(=O)O)[C@@H](C)O)C(C)C [peptide 164]
[5]
  IC50: 4.35 µM
[6]
  IC50: 3.23 µM
[7]
  IC50: 1.1 µM
[8]
  IC50: 2.17 µM
[9]
  IC50: 3.96 µM
[10]
  IC50: 15.2 µM
[11]
  IC50: 1.3 µM
[12]
  IC50: 13.2 µM
[13]
  IC50: 0.537 µM
[14]
  IC50: 0.174 µM
[1]
  IC50: 3.17 µM

## CC[C@H](C)[C@H](N)C(=O)N1CCC[C@H]1C(=O)N[C@@H](Cc1ccccc1)C(=O)N[C@@H](C)C(=O)N[C@@H](CCSC)C(=O)N[C@@H](CCC(N)=O)C(=O)N[C@@H](CCSC)C(=O)N[C@@H](C)C(=O)N[C@@H](Cc1ccc(O)cc1)C(=O)N[C@@H](CCCNC(=N)N)C(=O)N[C@@H](Cc1ccccc1)C(=O)N[C@@H](CC(N)=O)C(=O)NCC(=O)N[C@H](C(=O)NCC(=O)O)[C@@H](C)CC [peptide 180]
[5]
  IC50: 0.058 µM
[6]
  IC50: 11.7 µM
[7]
  IC50: 0.443 µM
[8]
  IC50: 1.61 µM
[9]
  IC50: 0.025 µM
[10]
  IC50: 0.553 µM
[11]
  IC50: 0.0079 µM
[12]
  IC50: 0.023 µM
[13]
  IC50: 0.0022 µM
[14]
  IC50: 13.7 µM
[1]
  IC50: 0.192 µM
